Laboratory results taken from article PMC2746281 (PLoS ONE, 2009).
Like-named read-outs stand apart in the source and are kept apart here.

Key:
recombinant human KIT = recombinant human KIT (Homo sapiens, UniProt P10721)
Protocol: Tyrosine phosphorylation by KIT was assayed by measuring the incorporation of phosphate into poly(Glu,Tyr 4∶1). […] Recombinant human KIT tyrosine kinase assays were performed using an ELISA-based assay with poly(Glu,Tyr 4∶1) as a substrate.
(§1) A 96-well microtitre plate (Immulon 2HB; ThermoLifeScience, Finland) was coated overnight with 0.25 mg/ml poly(Glu,Tyr 4:1), rinsed twice with 250 µl of washing buffer (10 mM phosphate-buffered saline [pH 7.4] and 0.05% Tween 20) and dried for 2 hours at room temperature. […] Reactions were initiated upon introduction of the enzyme and terminated with the addition of one reaction volume (50 μl) of 100 mM EDTA per 5 M urea mix. Plates were washed three times and incubated with 1:30,000 horseradish peroxidase-conjugated anti-phosphotyrosine monoclonal antibody (Sigma-Aldrich, France), then washed three times and incubated with tetramethylbenzidine. The final reaction product was quantified by spectrophotometry at 450 nm.

[1] = test system: human cord-blood-derived mast cells (CBMC); test: TNF-α release by IgE-anti IgE-activated CBMC (ELISA); type: cell-based; details: Mast cell, 4 hours of stimulation
Protocol: (see Supporting Information; Methods S1). […] Assays of β-hexosaminidase release and TNF-α release were made by stimulating the CBMC with 1 µg/ml of goat anti-human IgE (Vector Laboratories) for 30 minutes or 4 hours, respectively. β-hexosaminidase was measured in the supernatant and in the sonicated cell pellets and its net release calculated. For TNF-α determination, the cell-free supernatants were collected by centrifugation and frozen at −80°C until determination of mediator content by the use of a specific ELISA kit according to manufacturer's instructions (Coulter, France). All assays were performed in duplicate and counts were repeated twice for each well.
Human CBMC were produced by long-term culture of CD34+ progenitors purified from normal cord-blood. […] At the beginning of the culture, rhIL-3 (1 ng/ml) (R&D Systems Europe, France) was also added to induce maximal expansion of haematopoietic progenitors. After 3 days the IL-3 was removed and 4 days later cells were transferred to a complete serum-free medium containing rmSCF at 100 ng/ml, which was renewed every 7 days thereafter. After 8 weeks in culture ≥99% of the cells were identified as being mast cells by May-Grünwald-Giemsa staining of cytocentrifuged samples.

mouse bone marrow cells = test: Chromosome / mitotic apparatus damage in mouse bone marrow cells; type: in vivo; details: two daily administrations at 437.5, 875, or 1750 mg/kg/day, our unpublished results
Akt1 = biological target: T1, Akt1 (Homo sapiens, UniProt P31749); test: Recombinant kinase screen (Proqinase), Akt1; type: biochemical; details: recombinant human enzyme; single experiment, kinase screen by Proqinase
T1 construct: purchased Proqinase (Germany)
Protocol: (§2) Full details for the generation of recombinant human KIT intracellular domain and other protein kinases (including Lyn, platelet derived growth factor receptor β, epidermal growth factor receptor, fibroblast growth factor receptor 1, Src, HCK, PYK, FES, Btk, Bmx, c-Ret, c-Fms, Syk, and c-Met) are provided in the Supplemental Methods (see Supporting Information; Methods S1). Experiments on ABL1, Akt1, protein kinase C-α, insulin-like growth factor receptor 1, and Pim1 were carried out by Proqinase (Germany). All other recombinant protein kinases were performed in-house using an enzyme-linked immunoassay; experimental details are provided in the Supplemental Methods (see Supporting Information; Methods S1).

mouse lymphoma = test: Mouse lymphoma assay; type: cell-based; details: our unpublished results
[2] = biological target: T2, Fibroblast growth factor receptor 3 (Homo sapiens, UniProt P22607); test: Ba/F3 cell proliferation (WST-1), FGFR3; details: Ba/F3 cells expressing the enzyme, read-out: Cell-based assay IC50, Fibroblast growth factor receptor 3
Jak2 [3] = biological target: T3, Jak2 (Homo sapiens, UniProt O60674); test: Ba/F3 cell proliferation (WST-1), Jak2; details: Ba/F3 cells expressing the enzyme, read-out: Cell-based assay IC50, Jak2
PDGFRβ = PDGFRβ (Homo sapiens, UniProt P09619); test: Ba/F3 cell proliferation (WST-1), PDGFRβ; parameters: expressed in transfected cells; host or cells: Ba/F3 (general description of the cell system; not repeated for this kinase); details: Ba/F3 cells expressing the enzyme, read-out: Cell-based assay IC50, PDGFRβ
[4] = biological target: T2, Fibroblast growth factor receptor 3; test: Recombinant kinase ELISA assay, FGFR3; type: biochemical; details: recombinant human enzyme; ELISA-based assay, poly(Glu,Tyr 4:1) substrate
Protocol: as §2
as §1, with “Plates were washed three times and incubated with 1:30,000 horseradish peroxidase-conjugated anti-phosphotyrosine monoclonal antibody (Sigma-Aldrich, France), then washed three times and incubated with tetramethylbenzidine.” left out

primary BMMCs = test: IL-3-stimulated proliferation of primary BMMCs; type: cell-based, mice; details: Mus musculus, BMMC, primary murine BMMCs
Protocol: (B) western blotting analysis of HMC-1α155 tyrosine phosphorylation. […] (D) Western blotting analysis of BMMC tyrosine phosphorylation. Cell proliferation was assessed by WST-1 colorimetric assay. […] MW = molecular weight.

Jak2 [5] = biological target: T3, Jak2; test: Recombinant kinase screen (Proqinase), Jak2; type: biochemical; details: recombinant human enzyme; single experiment, kinase screen by Proqinase

recombinant human KIT, sequence (P10721 567-976): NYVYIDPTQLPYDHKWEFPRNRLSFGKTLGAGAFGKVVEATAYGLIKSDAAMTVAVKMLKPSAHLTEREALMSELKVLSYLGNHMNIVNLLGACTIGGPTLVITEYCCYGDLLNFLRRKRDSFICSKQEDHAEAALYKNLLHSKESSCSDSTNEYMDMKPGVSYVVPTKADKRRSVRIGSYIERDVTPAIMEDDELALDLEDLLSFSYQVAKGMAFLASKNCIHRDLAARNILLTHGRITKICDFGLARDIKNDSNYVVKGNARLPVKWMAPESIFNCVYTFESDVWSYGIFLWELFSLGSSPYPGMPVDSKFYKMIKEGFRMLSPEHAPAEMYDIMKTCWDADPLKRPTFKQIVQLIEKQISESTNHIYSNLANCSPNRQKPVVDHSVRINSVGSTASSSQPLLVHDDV
T3 sequence (O60674 whole entry): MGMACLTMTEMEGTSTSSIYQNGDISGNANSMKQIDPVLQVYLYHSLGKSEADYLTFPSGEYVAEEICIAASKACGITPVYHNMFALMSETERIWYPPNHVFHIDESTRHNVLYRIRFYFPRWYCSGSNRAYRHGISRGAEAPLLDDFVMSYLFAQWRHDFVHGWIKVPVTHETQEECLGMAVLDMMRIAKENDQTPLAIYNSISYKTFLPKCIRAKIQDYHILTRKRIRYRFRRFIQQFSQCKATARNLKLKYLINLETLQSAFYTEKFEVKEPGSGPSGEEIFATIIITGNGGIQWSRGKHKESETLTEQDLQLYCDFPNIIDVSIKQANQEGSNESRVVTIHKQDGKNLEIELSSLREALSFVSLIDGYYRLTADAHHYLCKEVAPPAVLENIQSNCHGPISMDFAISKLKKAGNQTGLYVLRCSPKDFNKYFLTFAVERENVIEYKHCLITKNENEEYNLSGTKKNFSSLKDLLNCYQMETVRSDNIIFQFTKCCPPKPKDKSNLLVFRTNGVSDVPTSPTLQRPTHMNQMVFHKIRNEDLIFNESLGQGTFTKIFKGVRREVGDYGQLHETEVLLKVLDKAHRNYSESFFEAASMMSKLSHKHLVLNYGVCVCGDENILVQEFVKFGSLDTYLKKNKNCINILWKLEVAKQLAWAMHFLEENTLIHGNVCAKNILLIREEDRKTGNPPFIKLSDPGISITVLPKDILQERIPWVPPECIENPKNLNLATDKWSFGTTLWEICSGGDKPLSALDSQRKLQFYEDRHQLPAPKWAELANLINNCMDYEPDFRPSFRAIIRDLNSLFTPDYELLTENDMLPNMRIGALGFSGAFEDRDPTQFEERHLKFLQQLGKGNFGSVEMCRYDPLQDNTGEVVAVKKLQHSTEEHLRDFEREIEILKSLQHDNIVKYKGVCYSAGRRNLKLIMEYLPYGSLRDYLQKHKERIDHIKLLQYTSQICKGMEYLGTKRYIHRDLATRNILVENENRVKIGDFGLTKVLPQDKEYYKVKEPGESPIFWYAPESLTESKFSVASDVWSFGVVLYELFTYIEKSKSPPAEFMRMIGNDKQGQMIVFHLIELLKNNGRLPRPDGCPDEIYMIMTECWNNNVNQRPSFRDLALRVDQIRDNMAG
T2 sequence (P22607 23-806): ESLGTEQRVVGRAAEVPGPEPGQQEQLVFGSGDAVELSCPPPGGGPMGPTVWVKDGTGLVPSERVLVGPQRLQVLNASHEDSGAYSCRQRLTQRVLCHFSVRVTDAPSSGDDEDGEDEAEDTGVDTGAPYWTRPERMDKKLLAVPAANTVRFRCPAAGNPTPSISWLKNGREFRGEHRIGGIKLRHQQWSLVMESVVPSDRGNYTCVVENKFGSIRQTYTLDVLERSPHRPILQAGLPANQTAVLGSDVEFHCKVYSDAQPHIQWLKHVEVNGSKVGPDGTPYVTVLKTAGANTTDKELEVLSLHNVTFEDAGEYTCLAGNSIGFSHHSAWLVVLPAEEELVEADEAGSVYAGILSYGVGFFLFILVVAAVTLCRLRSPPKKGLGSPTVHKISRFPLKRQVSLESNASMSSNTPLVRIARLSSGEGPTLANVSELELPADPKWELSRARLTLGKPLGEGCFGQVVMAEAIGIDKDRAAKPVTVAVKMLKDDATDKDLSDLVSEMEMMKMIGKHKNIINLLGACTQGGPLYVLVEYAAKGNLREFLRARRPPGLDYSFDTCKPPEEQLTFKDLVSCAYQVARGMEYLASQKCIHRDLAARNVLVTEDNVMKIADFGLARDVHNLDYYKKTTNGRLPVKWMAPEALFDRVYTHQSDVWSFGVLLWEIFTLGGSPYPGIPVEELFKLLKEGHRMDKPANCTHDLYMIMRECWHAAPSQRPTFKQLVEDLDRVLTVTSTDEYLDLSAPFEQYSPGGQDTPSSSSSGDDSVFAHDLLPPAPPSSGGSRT
T1 sequence (P31749 whole entry): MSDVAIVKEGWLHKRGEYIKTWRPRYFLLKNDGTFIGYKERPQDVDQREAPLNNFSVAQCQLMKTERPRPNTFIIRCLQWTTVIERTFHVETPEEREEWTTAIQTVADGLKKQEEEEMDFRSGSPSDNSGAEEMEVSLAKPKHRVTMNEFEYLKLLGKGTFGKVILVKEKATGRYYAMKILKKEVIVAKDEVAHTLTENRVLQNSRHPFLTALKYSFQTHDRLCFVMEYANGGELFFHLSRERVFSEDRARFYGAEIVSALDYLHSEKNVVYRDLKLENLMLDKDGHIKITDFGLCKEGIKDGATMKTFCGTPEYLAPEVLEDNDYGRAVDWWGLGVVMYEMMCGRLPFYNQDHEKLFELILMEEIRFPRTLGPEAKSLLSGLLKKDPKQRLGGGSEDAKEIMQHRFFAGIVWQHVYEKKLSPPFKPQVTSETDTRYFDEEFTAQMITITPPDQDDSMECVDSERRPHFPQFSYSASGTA
PDGFRβ, sequence (P09619 33-1106): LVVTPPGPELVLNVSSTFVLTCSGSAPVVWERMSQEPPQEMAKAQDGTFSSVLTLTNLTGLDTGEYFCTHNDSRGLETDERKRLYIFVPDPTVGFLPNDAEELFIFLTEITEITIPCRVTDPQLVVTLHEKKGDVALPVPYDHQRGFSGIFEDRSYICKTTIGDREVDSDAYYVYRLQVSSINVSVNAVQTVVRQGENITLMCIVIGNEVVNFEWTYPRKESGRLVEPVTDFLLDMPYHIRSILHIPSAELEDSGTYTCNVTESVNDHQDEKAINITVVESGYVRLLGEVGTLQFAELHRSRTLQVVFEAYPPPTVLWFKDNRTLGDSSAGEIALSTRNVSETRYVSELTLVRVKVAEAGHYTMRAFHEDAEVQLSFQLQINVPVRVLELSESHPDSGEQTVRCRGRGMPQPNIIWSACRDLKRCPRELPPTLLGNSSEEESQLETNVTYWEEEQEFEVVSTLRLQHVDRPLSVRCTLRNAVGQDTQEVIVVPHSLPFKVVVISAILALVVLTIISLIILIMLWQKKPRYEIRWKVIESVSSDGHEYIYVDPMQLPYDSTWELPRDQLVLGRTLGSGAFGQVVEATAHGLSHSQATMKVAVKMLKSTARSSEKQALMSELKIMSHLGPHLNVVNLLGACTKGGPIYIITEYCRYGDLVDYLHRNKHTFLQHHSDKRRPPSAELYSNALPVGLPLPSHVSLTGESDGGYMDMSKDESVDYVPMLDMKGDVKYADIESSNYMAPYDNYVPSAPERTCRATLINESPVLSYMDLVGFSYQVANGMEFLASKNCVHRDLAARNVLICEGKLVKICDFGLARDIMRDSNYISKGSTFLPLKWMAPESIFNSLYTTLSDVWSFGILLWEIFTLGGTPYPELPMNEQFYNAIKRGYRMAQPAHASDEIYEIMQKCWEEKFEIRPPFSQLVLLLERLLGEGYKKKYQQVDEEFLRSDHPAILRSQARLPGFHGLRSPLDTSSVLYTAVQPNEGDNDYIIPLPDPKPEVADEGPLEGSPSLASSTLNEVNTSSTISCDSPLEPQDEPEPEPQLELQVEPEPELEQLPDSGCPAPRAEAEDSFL

CS(=O)(=O)O.CS(=O)(=O)O.Cc1ccc(NC(=O)c2ccc(CN3CCN(C)CC3)cc2)cc1Nc1nc(-c2cccnc2)cs1 [masitinib, 4-(4-methylpiperazin-1-ylmethyl)-N-[4-methyl-3-(4-pyridin-3ylthiazol-2-ylamino)phenyl]benzamide-mesylate methane sulfonic acid salt]
mechanism of inhibition against ATP (recombinant human KIT; concentrations ≤500 nM): competitive inhibitor against ATP
mechanism of inhibition against ATP (recombinant human KIT; higher concentrations (>1 µM)): mixed mechanism of inhibition against ATP
inhibition at 0.1 µM ([1]; 0.1 µM): 16%
inhibition at 1 µM ([1]; 1.0 µM): 40%
inhibition at 10 µM ([1]; 10 µM): 68%
damage to chromosomes or the mitotic apparatus (mouse bone marrow cells): does not cause damage to chromosomes or the mitotic apparatus
IC50 (Akt1): > 10 µM
mutagenicity in a mouse lymphoma assay (mouse lymphoma): not mutagenic
IC50 [2]: 5.5 ± 2.8 µM
IC50 (Jak2 [3]): 10 ± 0.8 µM
IC50 (PDGFRβ): 0.05 ± 0.02 µM
IC50 [4]: > 10 µM
IC50 (primary BMMCs): > 10 µM
IC50 (Jak2 [5]): > 10 µM
